Measurements reported in article PMC7217877, “N-AS-triggered SPMs are direct regulators of microglia in a model of Alzheimer’s disease” (Nature Communications, 2020).
“And” between values parts separate entries of the source, which are not always exact repeats. Equal entries are not always repeated.

Experiments:
APP/PS1 mice = test: COX2 mRNA and protein in microglia of mice treated with N-AS or aspirin (Supplementary Fig 7p,q); format: in vivo, mouse; settings: for COX2 mRNA in microglia: APP/PS1 mice treated, sFig 7p
Text: Adult neurons and microglia were isolated from the mice brain as previously described. In brief, the cortex of WT (1, 3, 5, or 9-months-old), APP/PS1 (1, 3, 5, or 9-months-old), APP/PS1 treated with N-AS (9-months-old) or APP/PS1 treated with aspirin (9-months-old) mice were minced in Hibernate A (Gibco)/B27 (Invitrogen) medium and dissociated using papain (Worthington) solution. After tissue trituration, cells were separated by Optiprep (Sigma-Aldrich) density gradient centrifugation.
Samples were lysed in RIPA buffer (Cell signaling Technologies), then subjected to SDS-PAGE and transferred to a nitrocellulose membrane. Membranes were blocked with 5% milk, incubated with primary antibody and then incubated with the appropriate horseradish peroxidase-conjugated secondary antibody. […] We performed densitometric quantification using the ImageJ software (National Institutes of Health). Images have been cropped for presentation.
Transgenic mouse lines over-expressing the hAPP695swe (APP) and presenilin-1M146V (PS1) mutations were originated from GlaxoSmithKline (Harlow, UK)[32] and maintained as described previously. […] Because APP/PS1 and 5xFAD mice show sex differences in disease progression, we used only male mice. […] Block randomization method was used to allocate the animals to experimental groups. To eliminate the bias, we were blinded in experimental progress such as data collection and data analysis. […] All protocols were approved by the Kyungpook National University Institutional Animal Care and Use Committee.
For total RNA extraction from the microglia derived from WT, APP/PS1, APP/PS1 mice treated with N-AS, and APP/PS1 mice treated with aspirin, the cells were isolated from the cortex of WT, APP/PS1, APP/PS1 mice treated with N-AS, or aspirin using the methods described above. […] Quantitative real-time PCR was performed using a Corbett research RG-6000 real-time PCR instrument. Primers are described in Supplementary Table 5.

COX2 = biological target: T1, COX2 (Homo sapiens, UniProt P35354); test: lipid mediator and SPM biosynthesis by recombinant COX2 with 5-LOX (LC-MS/MS); format: biochemical; design: purchased Cayman 60122; settings: for 11-HETE, Product (%) / 15-HETE, Product (%) / 15R-LXA4, Product (%) / PGH2, Product (%): AA; for 11-HETE, Product (%) / 15-HETE, Product (%) / 15R-LXA4, Product (%) / PGH2, Product (%) / 13-HDHA, Product (%) / 17-HDHA, Product (%) / RvD1, Product (%) / 11-HEPE, Product (%) / 15-HEPE, Product (%) / 18-HEPE, Product (%) / RvE1, Product (%): acetylated huCOX2, mean±s.e.m., n=6; for 15R-LxA4 quantification (Fig 2c) / RvD1 quantification (Fig 2c) / RvE1 quantification (Fig 2c): Control COX2 + 5-LOX, replicates; for 13-HDHA, Product (%) / 17-HDHA, Product (%) / RvD1, Product (%): DHA; for 11-HEPE, Product (%) / 15-HEPE, Product (%) / 18-HEPE, Product (%) / RvE1, Product (%): EPA
T1 sequence (P35354 18-604): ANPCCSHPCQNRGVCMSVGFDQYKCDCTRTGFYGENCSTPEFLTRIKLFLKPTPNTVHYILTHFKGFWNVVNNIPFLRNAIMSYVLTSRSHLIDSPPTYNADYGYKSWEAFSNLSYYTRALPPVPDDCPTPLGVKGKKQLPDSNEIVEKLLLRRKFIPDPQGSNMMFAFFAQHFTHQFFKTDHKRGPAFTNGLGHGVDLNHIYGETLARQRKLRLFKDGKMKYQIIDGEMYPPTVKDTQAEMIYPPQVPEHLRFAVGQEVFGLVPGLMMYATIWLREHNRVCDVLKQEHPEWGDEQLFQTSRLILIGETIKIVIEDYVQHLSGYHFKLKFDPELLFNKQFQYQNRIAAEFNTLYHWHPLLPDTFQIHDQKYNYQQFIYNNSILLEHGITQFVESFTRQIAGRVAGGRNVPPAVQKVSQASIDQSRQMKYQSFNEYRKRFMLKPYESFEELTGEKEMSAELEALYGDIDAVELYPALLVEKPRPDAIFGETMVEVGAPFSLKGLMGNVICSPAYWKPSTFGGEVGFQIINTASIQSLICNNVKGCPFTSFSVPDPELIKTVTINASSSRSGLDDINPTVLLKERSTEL
Protocol: Lipid mediators metabololipidomics were performed according to previously described procedures with minor modifications[4],[30]. To confirm the biosynthesis of lipid mediators by recombinant COX2 treated with N-AS or aspirin, 10 U of human recombinant COX2 (Cayman, 60122) was incubated in the presence of 500 μM aspirin (Sigma-Aldrich, A5376) or N-AS (Sigma-Aldrich, 01912) at 37 °C for 30 min. The enzyme was filtered with a Microcon column (Millipore) to remove unreacted aspirin or N-AS and was then resuspended in 0.1 M Tris-HCl (pH 8.0). Next, 500 μM phenol (Sigma-Aldrich) and 1 μM hematin-porcine (Sigma-Aldrich) were added immediately before incubation with 100 μM AA, EPA or DHA (Cayman) at 37 °C for 2 h, respectively. The mixtures were incubated with 30 U of human 5-LOX (Cayman, 60402) containing 2 mM CaCl2 (Sigma-Aldrich), 1 mM ATP (Amresco) and 5 μM 13-HpODE (Cayman) as activators. Also, to validate the importance of residue S565 for N-AS-acetylation of COX2 and production of SPMs, 10 U of the COX2 S565A mutant was used in the above-described method. In addition, to confirm SPM generation in neurons and microglia, these cells were treated with Aβ and sonicated in neuronal and glial culture medium. […] To evaluate the relationship of N-AS and SPM production in microglia, microglia were isolated from WT, APP/PS1, and APP/PS1 treated with N-AS mice at 9 months of age. The microglia were sonicated and resuspended in microglial culture medium. The supernatants were incubated with 100 μM AA, EPA, and DHA (Cayman) at 37 °C for 2 h. A 50 μl aliquot of the mixture from each cell lysate was added to a 250 μl aliquot of 1 ng ml^−1 of 15S-LXA4-d5 (internal standard, Cayman) methanol solution. After vortexing for 10 min and centrifuging at 15,974×g for 5 min, the supernatant was subjected to the analysis of the lipid mediators using an Agilent 6470 Triple Quad LC-MS/MS system (Agilent) coupled to an Agilent 1290 HPLC system. Chromatographic separation was achieved using a Synergi Polar RP (4 μm, 2.0 mm i.d. × 150 mm, Phenomenex). Analytes were eluted with a mobile phase consisting of water: formic acid (100:0.1 v/v) (phase A) and methanol: formic acid (100:0.1 v/v) (phase B) in gradient elution mode for 23 min a flow rate of 0.2 ml min^−1. The elution gradient was as follows: from 0 to 0.1 min the content of phase A was 37% and the content of phase A was decreased to 10% and maintained for 5.5 min. The content of phase A was increased back to 37% at 6.0 min and maintained for 23 min. Quantification was carried out using MRM in negative ionization mode and collision energy of 10–15 eV. The mass transition from Q1 to Q3 is shown in Supplementary Table 2. In this study, the peak areas for all components were automatically integrated using MassHunter B 06.00.

Compound	COX2 mRNA in microglia (APP/PS1 mice)	11-HETE, Product (%) (COX2)	15-HETE, Product (%) (COX2)	15R-LXA4, Product (%) (COX2)	PGH2, Product (%) (COX2)	15R-LxA4 quantification (Fig 2c) (COX2)	RvD1 quantification (Fig 2c) (COX2)	RvE1 quantification (Fig 2c) (COX2)	13-HDHA, Product (%) (COX2)	17-HDHA, Product (%) (COX2)	RvD1, Product (%) (COX2)	11-HEPE, Product (%) (COX2)	15-HEPE, Product (%) (COX2)	18-HEPE, Product (%) (COX2)	RvE1, Product (%) (COX2)	mRNA and protein levels of COX2 (APP/PS1 mice; N-AS-treated vs APP/PS1)
CC(=O)Oc1ccccc1C(=O)O [Aspirin, acetylsalicylic acid, reference compound]	0.57 and 0.65 and 0.68 and 0.49 and 0.61	13.8±0.41	9.5±0.22	4.2±0.18	72.3±0.68	8734.32 and 9047.96 and 8672.38 and 8679.89 and 12017 and 8786.05 and 9112.59	529.99 and 519.44 and 632.8 and 532.11 and 521.52	3237.03 and 3196.43 and 4589.07 and 4937.89 and 3246.64 and 3210.17	5.0±0.15	94.6±0.22	0.4±0.01	27.3±1.40	5.8±0.06	61.3±0.32	3.1±0.25	–
CCCCCCCCCCCCC/C=C/[C@@H](O)[C@H](CO)NC(C)=O [N-AS, N-((2S,3R,E)-1,3-Dihydroxyoctadec-4-en-2-yl)acetamide]	0.91 and 0.92 and 1.07 and 1.22 and 1	13.1±0.55	13.3±0.59	4.8±0.23	69.7±1.08	10460.6 and 9709.13 and 8768.93 and 9235.99 and 8577.96 and 10535.3	670.43 and 829.94 and 668.56 and 744.28 and 781.34 and 739.49 and 733.66	4023.99 and 3322.2 and 4006.77 and 4517.41 and 3768.91 and 4998.35 and 3336.48	3.6±0.09	95.8±0.19	0.53±0.09	26.8±0.41	5.8±0.09	64.0±0.25	3.3±0.09	did not vary
